Reference: PubChem BioAssay (NCI)
Where “and” joins values, the source holds several entries; their conditions need not be identical. Equal values may be shown once.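 Five compound concentrations were applied to cells in 96-well plates for 48 hours; endpoints were derived by simple linear interpolation of the resulting dose-response curve. The concentration for 50% growth inhibition is given as GI50. The concentration for full growth arrest is given as TGI.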

Assays:
Test in all cases: inhibition of tumour cell growth, NCI panel, 48 h
[1] = test system: 786-0 renal
[2] = test system: A498 renal
[3] = test system: A549 NSCLC
[4] = test system: ACHN renal
[5] = test system: CAKI-1 renal
[6] = test system: CCRF-CEM leukemia
[7] = test system: COLO 205 colon
[8] = test system: DLD-1 colon
[9] = test system: DMS 114 small cell lung
[10] = test system: DMS 273 small cell lung
[11] = test system: EKVX NSCLC
[12] = test system: HCC-2998 colon
[13] = test system: HCT-116 colon
[14] = test system: HCT-15 colon
[15] = test system: HL-60(TB) leukemia
[16] = test system: HOP-62 NSCLC
[17] = test system: HOP-92 NSCLC
[18] = test system: HT29 colon
[19] = test system: IGROV1 ovarian
[20] = test system: K-562 leukemia
[21] = test system: KM12 colon
[22] = test system: KM20L2 colon
[23] = test system: LOX IMVI melanoma
[24] = test system: LXFL 529 NSCLC
[25] = test system: M14 melanoma
[26] = test system: M19-MEL melanoma
[27] = test system: MALME-3M melanoma
[28] = test system: MOLT-4 leukemia
[29] = test system: NCI-H226 lung
[30] = test system: NCI-H23 lung
[31] = test system: NCI-H460 lung
[32] = test system: NCI-H522 lung
[33] = test system: OVCAR-3 ovarian
[34] = test system: OVCAR-4 ovarian
[35] = test system: OVCAR-5 ovarian
[36] = test system: OVCAR-8 ovarian
[37] = test system: RPMI-8226 leukemia
[38] = test system: RXF 393 renal
[39] = test system: RXF-631 renal
[40] = test system: SF-268 CNS
[41] = test system: SF-295 CNS
[42] = test system: SF-539 CNS
[43] = test system: SK-MEL-2 melanoma
[44] = test system: SK-MEL-28 melanoma
[45] = test system: SK-MEL-5 melanoma
[46] = test system: SK-OV-3 ovarian
[47] = test system: SN12C renal
[48] = test system: SNB-19 CNS
[49] = test system: SNB-75 CNS
[50] = test system: SNB-78 CNS
[51] = test system: SR leukemia
[52] = test system: SW-620 colon
[53] = test system: TK-10 renal
[54] = test system: U251 CNS
[55] = test system: UACC-257 melanoma
[56] = test system: UO-31 renal
[57] = test system: XF 498 CNS
[58] = test system: HOP-18 NSCLC
[59] = test system: UACC-62 melanoma
[60] = test system: BT-549 breast
[61] = test system: T-47D breast

Cn1cc2ccccc2c1-c1nc(N)nc(F)n1
TGI [1]: > 100 µM
TGI [2]: 53.5 µM
TGI [3]: > 100 µM
TGI [4]: > 100 µM
TGI [5]: > 100 µM
TGI [6]: > 100 µM
TGI [7]: > 100 µM
TGI [8]: > 100 µM
TGI [9]: > 100 µM
TGI [10]: > 100 µM
TGI [11]: > 100 µM
TGI [12]: > 100 µM
TGI [13]: > 100 µM
TGI [14]: > 100 µM
TGI [15]: > 100 µM
TGI [16]: > 100 µM
TGI [17]: > 100 µM
TGI [18]: > 100 µM
TGI [19]: > 100 µM
TGI [20]: > 100 µM
TGI [21]: > 100 µM
TGI [22]: > 100 µM
TGI [23]: > 100 µM
TGI [24]: > 100 µM
TGI [25]: > 100 µM
TGI [26]: > 100 µM
TGI [27]: > 100 µM
TGI [28]: > 100 µM
TGI [29]: > 100 µM
TGI [30]: > 100 µM
TGI [31]: > 100 µM
TGI [32]: > 100 µM
TGI [33]: > 100 µM
TGI [34]: > 100 µM
TGI [35]: > 100 µM
TGI [36]: > 100 µM
TGI [37]: > 100 µM
TGI [38]: > 100 µM
TGI [39]: > 100 µM
TGI [40]: > 100 µM
TGI [41]: > 100 µM
TGI [42]: > 100 µM
TGI [43]: > 100 µM
TGI [44]: > 100 µM
TGI [45]: > 100 µM
TGI [46]: > 100 µM
TGI [47]: > 100 µM
TGI [48]: > 100 µM
TGI [49]: > 100 µM
TGI [50]: > 100 µM
TGI [51]: > 100 µM
TGI [52]: > 100 µM
TGI [53]: > 100 µM
TGI [54]: > 100 µM
TGI [55]: > 100 µM
TGI [56]: > 100 µM
TGI [57]: > 100 µM

CCOc1ccc2c(c1)[n+]([O-])c(S(=O)(=O)c1ccc(C)cc1)c(N)[n+]2[O-]
TGI [1]: > 100 µM
TGI [2]: > 100 µM
TGI [3]: > 100 µM
TGI [4]: > 100 µM
TGI [5]: > 100 µM
TGI [6]: > 100 µM
TGI [7]: > 100 µM
TGI [8]: > 100 µM
TGI [9]: > 100 µM
TGI [11]: > 100 µM
TGI [12]: > 100 µM
TGI [13]: > 100 µM
TGI [15]: > 100 µM
TGI [58]: > 100 µM
TGI [16]: > 100 µM
TGI [17]: > 100 µM
TGI [18]: > 100 µM
TGI [19]: > 100 µM
TGI [20]: > 100 µM
TGI [21]: > 100 µM
TGI [22]: > 100 µM
TGI [24]: > 100 µM
TGI [25]: > 100 µM
TGI [26]: > 100 µM
TGI [27]: > 100 µM
TGI [28]: > 100 µM
TGI [29]: > 100 µM
TGI [30]: > 100 µM
TGI [31]: > 100 µM
TGI [32]: > 100 µM
TGI [33]: > 100 µM
TGI [34]: > 100 µM
TGI [35]: > 100 µM
TGI [36]: > 100 µM
TGI [37]: > 100 µM
TGI [40]: > 100 µM
TGI [41]: > 100 µM
TGI [42]: > 100 µM
TGI [43]: > 100 µM
TGI [44]: > 100 µM
TGI [45]: > 100 µM
TGI [46]: > 100 µM
TGI [48]: > 100 µM
TGI [49]: > 100 µM
TGI [50]: > 100 µM
TGI [52]: > 100 µM
TGI [53]: > 100 µM
TGI [54]: > 100 µM
TGI [55]: > 100 µM
TGI [59]: > 100 µM
TGI [56]: > 100 µM

Nc1nc(=S)c2ncn(C3CC(O)C(CO)O3)c2[nH]1 (centres undefined)
TGI [1]: > 2350 µM
TGI [60]: 883 µM and 4760 µM
TGI [8]: 340 µM and 1740 µM
TGI [58]: > 983 µM and 4020 µM
TGI [18]: > 466 µM and 2190 µM
TGI [19]: 521 µM and 2870 µM
TGI [20]: 333 µM and 2590 µM
TGI [21]: 75 µM and 700 µM
TGI [22]: 421 µM and 2940 µM
TGI [26]: > 4680 µM
TGI [29]: 639 µM and > 5000 µM
TGI [40]: 555 µM and > 5000 µM
TGI [41]: 382 µM and 3310 µM
TGI [44]: 594 µM and > 5000 µM
TGI [47]: 353 µM and 3130 µM
GI50 [48]: 77.3 µM and 753 µM
TGI [48]: > 5000 µM
TGI [49]: 377 µM and 3000 µM
TGI [50]: > 5000 µM
TGI [52]: 385 µM and 3540 µM
TGI [61]: 438 µM and > 3110 µM
TGI [54]: 901 µM and > 4730 µM

NC(N)=NS(=O)(=O)c1ccc(NCc2c3ccccc3[n+]([O-])c3ccccc23)cc1
TGI [1]: > 100 µM
TGI [2]: > 100 µM
TGI [3]: > 100 µM
TGI [4]: 70.4 µM
TGI [5]: > 100 µM
TGI [6]: 84.4 µM
TGI [7]: > 100 µM
TGI [8]: > 100 µM
TGI [9]: 56.6 µM
TGI [10]: > 100 µM
TGI [11]: > 100 µM
TGI [12]: > 100 µM
TGI [13]: 31.9 µM
TGI [14]: 74.4 µM
TGI [15]: 44.4 µM
TGI [58]: 52.3 µM
TGI [16]: > 100 µM
TGI [17]: 28.5 µM
TGI [18]: > 100 µM
TGI [19]: > 100 µM
TGI [20]: > 100 µM
TGI [21]: > 100 µM
TGI [22]: > 100 µM
TGI [23]: 90.9 µM
TGI [24]: 80.5 µM
TGI [25]: > 100 µM
TGI [26]: > 100 µM
TGI [27]: 51.5 µM
TGI [28]: 43.8 µM
TGI [29]: 72.8 µM
TGI [30]: > 100 µM
TGI [31]: > 100 µM
TGI [32]: > 100 µM
TGI [33]: > 100 µM
TGI [34]: 85.3 µM
TGI [35]: > 100 µM
TGI [36]: > 100 µM
TGI [37]: 74.3 µM
TGI [40]: 86.6 µM
TGI [41]: > 100 µM
TGI [43]: > 100 µM
TGI [44]: 62.5 µM
TGI [45]: 33.5 µM
TGI [46]: > 100 µM
TGI [47]: > 100 µM
TGI [48]: > 100 µM
TGI [49]: 84.8 µM
TGI [50]: > 100 µM
TGI [52]: > 100 µM
TGI [53]: > 100 µM
TGI [54]: > 100 µM
TGI [55]: > 100 µM
TGI [59]: > 100 µM
TGI [56]: 73.8 µM
